Earlier results, collected in patent US12377031B2, “Cosmetic compositions comprising 4-hydroxyacetophenone” (L'OREAL, priority 2020, dated 2025).

heating temperature required to solubilize into aqueous systems: ≥ 60 °C
solubility in water: limited solubility
SMILES: CC(=O)c1ccc(O)cc1 [4-hydroxyacetophenone, 4-Hydroxyacetophenone]
